Assay results taken from ChEMBL document CHEMBL3885881, “DrugMatrix”.

Species on record: Rattus norvegicus
Assay: DrugMatrix - Regimen: Daily Repeat
Format: toxicity, organism-based, Sprague-Dawley
Set-up: regimen Daily Repeat, gender Male, age 6-8 weeks
Conditions: in vivo, iv, 2 mg/kg, dose level Low, vehicle 100 % SALINE; for ABSOLUTE BASOPHIL / ABSOLUTE EOSINOPHIL / ABSOLUTE LYMPHOCYTE / ABSOLUTE MONOCYTE / ABSOLUTE SEGMENTED NEUTROPHIL / BASOPHIL / EOSINOPHIL / ERYTHROCYTE COUNT / HEMATOCRIT / HEMOGLOBIN / LEUKOCYTE COUNT / LYMPHOCYTE / MEAN CORPUSCULAR HEMOGLOBIN / MEAN CORPUSCULAR HEMOGLOBIN CONCENTRATION / MEAN CORPUSCULAR VOLUME / MONOCYTE / NEUTROPHIL / NUCLEATED RED BLOOD CELLS / PLATELET COUNT: tissue Blood; for ALANINE AMINOTRANSFERASE / ALBUMIN / ALKALINE PHOSPHATASE / ASPARTATE AMINOTRANSFERASE / BLOOD UREA NITROGEN / CARBON DIOXIDE / CHLORIDE / CHOLESTEROL / CREATINE PHOSPHOKINASE / CREATININE / GLUCOSE / LACTATE DEHYDROGENASE / LIPASE / PHOSPHORUS / POTASSIUM / SODIUM / TOTAL BILIRUBIN / TOTAL PROTEIN / URIC ACID: tissue Plasma

CCN1CC(CCN2CCOCC2)C(c2ccccc2)(c2ccccc2)C1=O (stereo unspecified) [DOXAPRAM]
ABSOLUTE BASOPHIL (72 h, time 3 day): 0 CELLS/uL | ABSOLUTE EOSINOPHIL (72 h, time 3 day): 0 CELLS/uL | ABSOLUTE LYMPHOCYTE (72 h, time 3 day): 13662.33 CELLS/uL | ABSOLUTE MONOCYTE (72 h, time 3 day): 351.67 CELLS/uL | ABSOLUTE SEGMENTED NEUTROPHIL (72 h, time 3 day): 2319.33 CELLS/uL | BASOPHIL (72 h, time 3 day): 0% | EOSINOPHIL (72 h, time 3 day): 0% | ERYTHROCYTE COUNT (72 h, time 3 day): 5.67 x10E6/uL | HEMATOCRIT (72 h, time 3 day): 35.7% | HEMOGLOBIN (72 h, time 3 day): 14.2 G/DL | LEUKOCYTE COUNT (72 h, time 3 day): 16.33 x10E3/uL | LYMPHOCYTE (72 h, time 3 day): 84% | MEAN CORPUSCULAR HEMOGLOBIN (72 h, time 3 day): 25.1 pg | MEAN CORPUSCULAR HEMOGLOBIN CONCENTRATION (72 h, time 3 day): 39.77 G/DL | MEAN CORPUSCULAR VOLUME (72 h, time 3 day): 63.03 fL | MONOCYTE (72 h, time 3 day): 2% | NEUTROPHIL (72 h, time 3 day): 14% | NUCLEATED RED BLOOD CELLS (72 h, time 3 day): 0 /100WBC | PLATELET COUNT (72 h, time 3 day): 1174 x10E3/uL | ALANINE AMINOTRANSFERASE (72 h, time 3 day): 72.33 u/L | ALBUMIN (72 h, time 3 day): 3.93 G/DL | ALKALINE PHOSPHATASE (72 h, time 3 day): 296.67 u/L | ASPARTATE AMINOTRANSFERASE (72 h, time 3 day): 101 u/L | BLOOD UREA NITROGEN (72 h, time 3 day): 17 mg/dL | CARBON DIOXIDE (72 h, time 3 day): 26.33 mmol/L | CHLORIDE (72 h, time 3 day): 101.33 MEQ/L | CHOLESTEROL (72 h, time 3 day): 83.33 mg/dL | CREATINE PHOSPHOKINASE (72 h, time 3 day): 298.67 u/L | CREATININE (72 h, time 3 day): 0.15 mg/dL | GLUCOSE (72 h, time 3 day): 149 mg/dL | LACTATE DEHYDROGENASE (72 h, time 3 day): 372.67 u/L | LIPASE (72 h, time 3 day): 8 u/L | PHOSPHORUS (72 h, time 3 day): 12.83 mg/dL | POTASSIUM (72 h, time 3 day): 7.17 MEQ/L | SODIUM (72 h, time 3 day): 146.3 MEQ/L | TOTAL BILIRUBIN (72 h, time 3 day): 0.17 mg/dL | TOTAL PROTEIN (72 h, time 3 day): 6.1 G/DL | URIC ACID (72 h, time 3 day): 1.53 mg/dL | ABSOLUTE BASOPHIL (120 h, time 5 day): 0 CELLS/uL | ABSOLUTE EOSINOPHIL (120 h, time 5 day): 0 CELLS/uL | ABSOLUTE LYMPHOCYTE (120 h, time 5 day): 13405 CELLS/uL | ABSOLUTE MONOCYTE (120 h, time 5 day): 468.67 CELLS/uL | ABSOLUTE SEGMENTED NEUTROPHIL (120 h, time 5 day): 2059.67 CELLS/uL | BASOPHIL (120 h, time 5 day): 0% | EOSINOPHIL (120 h, time 5 day): 0% | ERYTHROCYTE COUNT (120 h, time 5 day): 6.04 x10E6/uL | HEMATOCRIT (120 h, time 5 day): 37.2% | HEMOGLOBIN (120 h, time 5 day): 14.8 G/DL | LEUKOCYTE COUNT (120 h, time 5 day): 15.93 x10E3/uL | LYMPHOCYTE (120 h, time 5 day): 84% | MEAN CORPUSCULAR HEMOGLOBIN (120 h, time 5 day): 24.5 pg | MEAN CORPUSCULAR HEMOGLOBIN CONCENTRATION (120 h, time 5 day): 39.8 G/DL | MEAN CORPUSCULAR VOLUME (120 h, time 5 day): 61.53 fL | MONOCYTE (120 h, time 5 day): 3% | NEUTROPHIL (120 h, time 5 day): 13% | NUCLEATED RED BLOOD CELLS (120 h, time 5 day): 0.67 /100WBC | PLATELET COUNT (120 h, time 5 day): 1035 x10E3/uL | ALANINE AMINOTRANSFERASE (120 h, time 5 day): 97.67 u/L | ALBUMIN (120 h, time 5 day): 3.97 G/DL | ALKALINE PHOSPHATASE (120 h, time 5 day): 400.33 u/L | ASPARTATE AMINOTRANSFERASE (120 h, time 5 day): 101.33 u/L | BLOOD UREA NITROGEN (120 h, time 5 day): 15.33 mg/dL | CARBON DIOXIDE (120 h, time 5 day): 26.33 mmol/L | CHLORIDE (120 h, time 5 day): 101.33 MEQ/L | CHOLESTEROL (120 h, time 5 day): 65.33 mg/dL | CREATINE PHOSPHOKINASE (120 h, time 5 day): 230 u/L | CREATININE (120 h, time 5 day): 0.14 mg/dL | GLUCOSE (120 h, time 5 day): 159.33 mg/dL | LACTATE DEHYDROGENASE (120 h, time 5 day): 100.67 u/L | LIPASE (120 h, time 5 day): 8.33 u/L | PHOSPHORUS (120 h, time 5 day): 12.7 mg/dL | POTASSIUM (120 h, time 5 day): 6.47 MEQ/L | SODIUM (120 h, time 5 day): 144.37 MEQ/L | TOTAL BILIRUBIN (120 h, time 5 day): 0.13 mg/dL | TOTAL PROTEIN (120 h, time 5 day): 6.17 G/DL | URIC ACID (120 h, time 5 day): 1.6 mg/dL
